Test results published in article PMC2736342 (Biochemistry, 2009).
Where two headings read alike, the source gives them in different places. One block for each molecule: values may come before it. Ends that are not written are not given here. Peptide text beside a SMILES is read from it. * marks the point of attachment. Biotin = O=C1N[C@H]2[C@H](CS[C@H]2CCCCC(=O)*)N1

What was measured:
WT Gαi GDP = WT Gαi GDP (Rattus norvegicus, UniProt P10824, INS119HHHHHH); assay: SPR binding to immobilized peptide, wild-type GDP; details: pH 7.4
I56C/Q333C Gαi GDP = I56C/Q333C Gαi GDP (Rattus norvegicus, UniProt P10824, I56C/INS119HHHHHH/Q333C); assay: SPR binding to immobilized peptide, I56C/Q333C GDP; details: pH 7.4
D328R Gαi GDP = D328R Gαi GDP (Rattus norvegicus, UniProt P10824, D328R/INS119HHHHHH); assay: SPR binding to immobilized peptide, D328R GDP; details: pH 7.4
WT Gαi GDP •AlF4^− = WT Gαi GDP •AlF4^− (Rattus norvegicus, UniProt P10824, INS119HHHHHH); assay: SPR binding to immobilized peptide, wild-type GDP-AlF4^−; details: pH 7.4
[1] = target: I56C/Q333C Gαi GDP•AlF4^− (Rattus norvegicus, UniProt P10824, I56C/INS119HHHHHH/Q333C); assay: SPR binding to immobilized peptide, I56C/Q333C GDP-AlF4^−; details: pH 7.4
D328R Gαi GDP•AlF4^− = D328R Gαi GDP•AlF4^− (Rattus norvegicus, UniProt P10824, D328R/INS119HHHHHH); assay: SPR binding to immobilized peptide, D328R GDP-AlF4^−; details: pH 7.4
wild-type Gαi1 subunit [2] = target: T1, wild-type Gαi1 subunit (rat, UniProt P10824 2-354); assay: SPR
D328R Gαi1 subunit [3] = target: T2, D328R Gαi1 subunit (rat, UniProt P10824 2-354, D328R); assay: SPR
wild-type Gαi1 subunit [4] = target: T1, wild-type Gαi1 subunit; assay: SPR; remark: listed apart in the source
D328R Gαi1 subunit [5] = target: T2, D328R Gαi1 subunit; assay: SPR; remark: listed apart in the source

koff (WT Gαi GDP): 0.06 ± 0.01 s⁻¹
kon (WT Gαi GDP): 21100 M⁻¹ s⁻¹
koff (I56C/Q333C Gαi GDP): 0.22 ± 0.03 s⁻¹
kon (I56C/Q333C Gαi GDP): 7750 M⁻¹ s⁻¹
koff (D328R Gαi GDP): 0.01 ± 0.001 s⁻¹
kon (D328R Gαi GDP): 8560 M⁻¹ s⁻¹
Molecule: CSCC[C@H](NC(=O)[C@H](CC(C)C)NC(=O)[C@H](Cc1ccccc1)NC(=O)[C@H](CC(=O)O)NC(=O)[C@H](Cc1ccc(O)cc1)NC(=O)[C@H](Cc1c[nH]c2ccccc12)NC(=O)[C@@H](NC(=O)[C@@H](NC(=O)[C@H](CCCNC(=N)N)NC(=O)[C@@H](N)CO)C(C)C)[C@@H](C)O)C(=O)N[C@@H](CCC(=O)O)C(=O)N[C@@H](CC(=O)O)C(=O)N[C@H](C(=O)N[C@@H](CCCCN)C(=O)N[C@@H](CO)C(=O)N[C@@H](CCCNC(=N)N)C(=O)O)[C@@H](C)O [KB-752] (H-SRVTWYDFLMEDTKSR-OH)

koff (WT Gαi GDP •AlF4^−): 0.025 ± 0.001 s⁻¹
kon (WT Gαi GDP •AlF4^−): 22900 M⁻¹ s⁻¹
koff [1]: 0.006 ± 0.0008 s⁻¹
kon [1]: 16800 M⁻¹ s⁻¹
koff (D328R Gαi GDP•AlF4^−): 0.003 ± 0.0004 s⁻¹
kon (D328R Gαi GDP•AlF4^−): 8810 M⁻¹ s⁻¹
Molecule: CC[C@H](C)[C@H](NC(=O)CNC(=O)[C@H](Cc1c[nH]cn1)NC(=O)[C@H](Cc1ccc(O)cc1)NC(=O)[C@H](Cc1ccc(O)cc1)NC(=O)CNC(=O)[C@H](CCCNC(=N)N)NC(=O)[C@H](CO)NC(=O)[C@@H](N)CO)C(=O)N[C@@H](Cc1c[nH]c2ccccc12)C(=O)N[C@H](C(=O)NCC(=O)N[C@@H](CCC(=O)O)C(=O)N[C@@H](CCC(=O)O)C(=O)NCC(=O)N[C@@H](CCCNC(=N)N)C(=O)N[C@@H](CC(C)C)C(=O)N[C@@H](CO)C(=O)N[C@@H](CCCNC(=N)N)C(=O)O)C(C)C [KB-1753] (H-SSRGYYHGIWVGEEGRLSR-OH)

Continued, molecule first:

B1: peptide KB-752 (peptide)
peptide: Biotin-SRVTWYDFLMEDTKSR
Kd (wild-type Gαi1 subunit [2]): 2840 ± 810 nM
Kd (D328R Gαi1 subunit [3]): 1280 ± 20 nM

B2: peptide KB-1753 (peptide)
peptide: Biotin-SSRGYYHGIWVGEEGRLSR
Kd (wild-type Gαi1 subunit [4]): 1100 ± 100 nM
Kd (D328R Gαi1 subunit [5]): 260 ± 40 nM
